Values joined by “and” are separate entries in the source; they are usually repeats but may differ in a detail not shown here. Equal entries are not always repeated. “Also recorded” adds a separate entry of the source.
Legend:
[1] = system: advanced biliary tract cancer refractory or intolerant to standard chemotherapy; assay: Phase II randomized placebo-controlled trial, efficacy (PFS by BICR, OS, DCR); type: in vivo, human; set-up: disease control rate (DCR: CR+PR+SD) / Share of disease control patients with high LAT1 expression / Share of disease control patients with low LAT1 expression: concentration or dose not given beside the values
Experimental: (§1) As Phase II trial of Nanvuranlat, a multicenter, randomized, placebo-controlled, double-blind, parallel-group Phase II trial was conducted at 14 centers in Japan for patients with advanced biliary tract cancer who were refractory or intolerant of standard treatment. Patients were randomized in a 2:1 ratio to receive the drug or placebo using biliary tract cancer (BTC) subtype and resection status as allocation factors. The non-rapid (Slow and/or Intermediate) genotype was set as the NAT2 genotype for selection criteria, and based on the results of the PI study conducted earlier, 25 mg/m2 of Nanvuranlat or placebo was administered intravenously for 5 consecutive days and rested for 9 days (14 days: 1 cycle). Administration of the trial drug was continued until the discontinuation criteria were met. The primary endpoint was progression-free survival using RECIST 1.1 based on Blinded Independent Central Review. Images were obtained every 6 weeks from the start date and at discontinuation. PFS was defined as the date of the first documented progressive disease (PD) or death for any reason after randomization. The primary evaluation was conducted in the full analysis set (FAS) population, which consisted of all biliary tract cancer patients randomized to one of the arms. The safety evaluation was conducted in the SAFETY population, which was randomly assigned to one of the arms and received the trial drug. Nanvuranlat was used as monohydrochloride monohydrate.
Kaplan-Meier estimates corresponding to the event time points are calculated and plotted for each treatment group. Confidence intervals for the Kaplan-Meier estimates are constructed using the log-log method with standard errors approximated by the greenwood formula. Point estimates at the 25%, 50%, and 75% of survival time and 95% confidence intervals are obtained and presented in tabular form. The Brookmeyer and Crowley method is used to construct the confidence intervals for survival time percentiles.
Fitting to a stratified Cox proportional hazards model, the hazard ratio exp((β_drug)Λ) and its 95% confidence interval are estimated and presented in tabular and forest plot form, along with the p-value of the Wald test corresponding to the null hypothesis “β_drug=0; exp(β_drug)=1”.
Stratification factor 1: “Facility,” “Gall bladder cancer and other cancers,” and “Existence or nonexistence of primary tumor resection history” Stratification factor 2: “Biliary tract cancer subtype (intrahepatic biliary tract cancer, extrahepatic biliary tract cancer, […], or duodenal papillary carcinoma)” and “Existence or nonexistence of primary tumor resection history”
This test was a multicenter, randomized, double-blind, placebo-controlled, Phase II trial conducted at 14 major cancer centers/hospitals in Japan. Patients were randomly assigned to the Nanvuranlat or placebo group (2:1), stratified by BTC subtype and whether the primary cancer lesion had been resected, generated by an independent statistical group. Randomization to the two treatment groups was performed by IWRS (Interactive Web-based Response System) and generated by an independent statistical group.
Nanvuranlat 25 mg/m^2/day or placebo was administered intravenously for 5 consecutive days, followed by a 9-day rest period (=14 days: 1 cycle). The trial drug was administered by 90-minute infusion at the investigator's site (all patients were admitted during the first treatment cycle). Patients, drug administrators, and clinical trial coordinators were blinded to trial treatment. Nanvuranlat was used as monohydrochloride monohydrate.
Treatment with additional cycles was to continue until disease progression, the occurrence of other unacceptable toxicities, pregnancy confirmation, death, withdrawal of consent, loss to follow-up, unblinding of the trial, or termination of the trial, as determined by the investigator. […]

[2] = cited from earlier work
[3] = Phase II randomized placebo-controlled trial, safety (adverse events); type: in vivo
Experimental: as §1, with “The non-rapid (Slow and/or Intermediate) genotype was set as the NAT2 genotype for selection criteria, and based on the results of the PI study conducted earlier, 25 mg/m2 of Nanvuranlat or placebo was administered intravenously for 5 consecutive days and rested for 9 days (14 days: 1 cycle).” left out
The trial drug was administered by 90-minute infusion at the investigator's site (all patients were admitted during the first treatment cycle). Patients, drug administrators, and clinical trial coordinators were blinded to trial treatment. Nanvuranlat was used as monohydrochloride monohydrate.
Secondary endpoint was overall survival (OS), disease control rate (DCR) as assessed by BICR, and safety. […] Blood and urinary concentrations of Nanvuranlat and its metabolite N-acetyl-JPH203 (NAc-JPH203) were evaluated.
The primary efficacy analysis was performed using a full analysis set (FAS) population that included all randomly assigned BTC patients within their designated treatment group. The safety analysis population included all patients who received at least one trial treatment (safety population).
Statistics were used to summarize safety data, response rates, pharmacokinetic and pharmacodynamic data. Unless otherwise specified, all reported p-values are one-sided. Statistical analysis was performed using SAS software (version 9.4).

SMILES: Nc1cc(COc2c(Cl)cc(C[C@H](N)C(=O)O)cc2Cl)c2oc(-c3ccccc3)nc2c1 [Nanvuranlat, O-(5-amino-2-phenylbenzoxazol-7-yl)methyl-3,5-dichloro-L-tyrosine]
- PFS hazard ratio (HR) by BICR vs placebo ([1]; FAS all patients n=104, 25 mg/m2 iv 5 days, 9 days rest): 0.557
- Median PFS ([1]; FAS, Nanvuranlat group n=69): 46.0 days
- progression-free survival rate at 1.5 months ([1]; FAS, Nanvuranlat group n=69): 53.6% and 62.3%
- progression-free survival rate at 3 months ([1]; FAS, Nanvuranlat group n=69): 14.5% and 23.2%
- Overall survival HR vs placebo, LAT1 high-expressing subgroup with IHC ([1]; IHC, LAT1 high): 0.35
- Number of patients with controlled diseases, LAT1 score 0 ([1]; LAT1 score 0): 1
- Number of patients with controlled diseases, LAT1 score 1 ([1]; LAT1 score 1): 2
- Number of patients with controlled diseases, LAT1 score 2 ([1]; LAT1 score 2): 0
- Number of patients with controlled diseases, LAT1 score 3 ([1]; LAT1 score 3): 0
- Number of patients with controlled diseases, LAT1 score 4 ([1]; LAT1 score 4): 2
- PFS HR by BICR vs placebo, LAT1 high expression subgroup ([1]; LAT1 score 4-9, n=65): 0.439
- Number of patients with controlled diseases, LAT1 score 6 ([1]; LAT1 score 6): 4
- Number of patients with controlled diseases, LAT1 score 9 ([1]; LAT1 score 9): 5
- Number of disease control patients with high LAT1 ([1]; Nanvuranlat group, LAT1 high): 11
- Number of patients with controlled diseases ([1]; Nanvuranlat group, total): 17
- disease control rate (DCR: CR+PR+SD) ([1]; by BICR, Nanvuranlat group): 24.6%
- PFS HR vs placebo, subgroup EHC ([1]; extrahepatic biliary tract cancer, 95% CI in brackets): 0.150 (0.0437-0.5153)
- Overall survival HR vs placebo ([1]; full population of FAS): 0.849
- PFS HR vs placebo, subgroup GBC ([1]; gall bladder cancer, 95% CI in brackets): 0.287 (0.1009-0.8183)
- PFS HR vs placebo, subgroup IHC ([1]; intrahepatic biliary tract cancer, 95% CI in brackets): 0.872 (0.4359-1.7458)
- Share of disease control patients with high LAT1 expression ([1]; of 17 disease control patients): 64.7%
- Share of disease control patients with low LAT1 expression ([1]; of 17 disease control patients): 17.6%
- Overall survival HR vs placebo, high LAT1 ([1]; only patients with high LAT1): 0.670
- PFS HR vs placebo, EHC and GBC integrated ([1]; patients with GBC/EHC): 0.218
- maximum tolerated dose ([2]; 17 patients with solid tumors): 60 mg/m^2
- Grade 3 hepatic dysfunction, number of patients ([2]; only in patients with the Rapid form of NAT2): two
- Grade 3 or higher treatment-related adverse events ([3]; fatigue, decreased platelet count, hypertension): three
- Abdominal discomfort, All grades ([3]; n = 70): 2 (2.9%) n (%)
- At least one adverse event, All grades ([3]; n = 70): 60 (85.7%) n (%)
- At least one adverse event, ≥ Grade 3 ([3]; n = 70): 21 (30.0%) n (%)
- Blood creatinine elevation, All grades ([3]; n = 70): 1 (1.4%) n (%)
- Cancer pain, All grades ([3]; n = 70): 6 (8.6%) n (%)
- Cancer pain, ≥ Grade 3 ([3]; n = 70): 1 (1.4%) n (%)
- Cholangitis, All grades ([3]; n = 70): 10 (14.3%) n (%)
- Cholangitis, ≥ Grade 3 ([3]; n = 70): 9 (12.9%) n (%)
- Constipation, All grades ([3]; n = 70): 10 (14.3%) n (%)
- Diarrhea, All grades ([3]; n = 70): 8 (11.4%) n (%)
- Diarrhea, ≥ Grade 3 ([3]; n = 70): 1 (1.4%) n (%)
- Fatigue, All grades ([3]; n = 70): 1 (1.4%) n (%)
- Fever, All grades ([3]; n = 70): 9 (12.9%) n (%)
- High blood pressure, All grades ([3]; n = 70): 5 (7.1%) n (%)
- High blood pressure, ≥ Grade 3 ([3]; n = 70): 2 (2.9%) n (%)
- Hypophagia, All grades ([3]; n = 70): 16 (22.9%) n (%)
- Insomnia, All grades ([3]; n = 70): 8 (11.4%) n (%)
- Malaise, All grades ([3]; n = 70): 11 (15.7%) n (%)
- Malaise, ≥ Grade 3 ([3]; n = 70): 1 (1.4%) n (%)
- Nasopharyngitis, All grades ([3]; n = 70): 1 (1.4%) n (%)
- Nausea, All grades ([3]; n = 70): 9 (12.9%) n (%)
- Pruritus, All grades ([3]; n = 70): 5 (7.1%) n (%)
- Rash, All grades ([3]; n = 70): 2 (2.9%) n (%)
- Stomatitis, All grades ([3]; n = 70): 4 (5.7%) n (%)
- Tumor pain, All grades ([3]; n = 70): 1 (1.4%) n (%)
- Vomiting, All grades ([3]; n = 70): 5 (7.1%) n (%)
- adverse events of Grade 3 or higher ([3]; safety population n=70): 30.0%
- frequency of all adverse events ([3]; safety population n=70): 85.7%
- serious adverse events ([3]; safety population n=70): 21.4%
- treatment-related adverse events ([3]; safety population n=70): 41.4%
- discontinuations or dose reductions ([3]; trial observation period): no discontinuations or dose reductions; also recorded: Neither discontinuations nor dose reductions were considered as treatment related
- treatment-related deaths ([3]; trial observation period): no deaths suspected to be related to Nanvuranlat; also recorded: No treatment-related deaths; also recorded: no deaths or discontinuations linked to treatment

Reference: patent US20250041281A1, “METHOD OF TREATING BILIARY TRACT CANCER” (J-PHARMA CO., LTD., priority 2023, published 2025)
